Measurements published in article PMC5632533, “Mechanisms of action and in vivo antibacterial efficacy assessment of five novel hybrid peptides derived from Indolicidin and Ranalexin against Streptococcus pneumoniae” (PeerJ, 2017).

Columns and labels:
ICR (CD-1) mice = assay: In vivo toxicity in mice (SC, IN, IP routes); design: Aspartate aminotransferase, AST / Alanine transaminase, ALT / Alkaline phosphatase, ALP / Creatinine / Urea / Total bilirubin: unit not given here; details: for Eosinophil / Erythrocytes, RBC / Granulocytes / Hematocrit, HCT / Hemoglobin Hgb / Lymphocytes / Mean corpuscular haemoglobin concentration, MCHC / Mean corpuscular haemoglobin, MCH / Monocytes / White blood cells, WBC / platelet Counts, PLT / Mean corpuscular volume, MCV / Alanine transaminase, ALT / Alkaline phosphatase, ALP / Aspartate aminotransferase, AST / Creatinine / Total bilirubin / Urea: 3 doses (1hr, 12hr, 24hr), RN7-IN9, RN7-IN6 10 mg/kg, day 7, mean±SD, 4 mice; for Alanine transaminase, ALT / Alkaline phosphatase, ALP / Aspartate aminotransferase, AST / Creatinine / Total bilirubin / Urea: serum
Description: In this study, 4-week old male, pathogen free ICR (CD-1) mice were purchased from InVivos (Lim Chu Kang, Singapore) and used to assess the in vivo toxicity and antibacterial efficacy of the novel peptides, as these animals are by far the most commonly used model for the study of pneumococcal disease ([Chiavolini, Pozzi & Ricci, 2008]). The mice were kept in ventilated polycarbonate cages (12 h light/dark cycle, 20 ± 2 °C and 55% relative humidity). All mice were familiarized for seven days before any experimental procedure and were given unlimited pellets and water ad libitum. All animal experimentations were conducted according to the guidelines approved by Faculty of Medicine Institutional Animal Care and Use Committee (FOM IACUC), University of Malaya (ethics Reference no. : 2013-07-15/MMBTR/SDS).
In order to evaluate the possible toxic effects correlated to peptides administered in mice, four hybrid peptides RN7-IN10, RN7-IN9, RN7-IN8 and RN7-IN6 were chosen for in vivo toxicity assessment, due to their promising in vitro antibacterial activity ([Jindal et al., 2015]). Mice were separated into four groups (each with four mice) and were injected with respective peptides at 1 h, 12 h, and 24 h (three-dose regimen) via IP, SC, and IN administration routes. The hybrid peptides were first administered at high doses (100 mg/kg for IP route, 100 mg/kg for SC routes and 20 mg/kg for IN route). Any abnormal behavior was recorded and survival of mice was noted as well. In case adverse effects such as high physical stress, severe lethargy, physical inactiveness, and/or death were detected, lower graded doses were given. All the administered mice were monitored for seven days or until death occurred. At day seven post administration, all animals were sacrificed and blood and organs were collected. Untreated mice were used as a control group.
Mice used to evaluate the in vivo toxicity and antibacterial activity of the hybrid peptides using the subcutaneous (SC) and intranasal (IN) administration routes, were anesthetized using a combination of a standard dose of xylazine (ilium xylazil-20, 10 mg/kg) and ketamine (Narketan®-10, 100 mg/kg) through intraperitoneal (IP) injection. After seven days of treatment, the in vivo toxicity and antibacterial efficacy experiments were ended and the surviving mice were anesthetized. Blood samples for Hematological and biochemical analysis were collected via cardiac puncture using a 25G syringe (BD bioscience, San Jose, CA, USA). Whole blood for heamatological analysis was collected in 500 µl dipotassium EDTA microtainer tubes (BD Bioscience, USA). About 500 µl of blood collected an eppedorff tube and centrifuged at 8000 rpm for 5 min and then the serum was transferred into a new 1.5 ml tube for biochemistry analysis. The mice were then euthanized by cervical dislocation, dissected and the following organs were collected for histopathology evaluation: lung, kidney, brain, liver and spleen.
For whole blood analysis, the parameters were number of red cells (RBC), number of white cells (WBC), lymphocytes, monocytes, eosinophil, granulocytes, haemoglobin (Hgb), mean corpuscular volume (MCV), hematocrit (HCT), platelet Counts (PLT), Mean corpuscular haemoglobin (MCH) and corpuscular haemoglobin concentration (MCHC). For biochemistry analysis, the parameters were alanine transaminase (ALT), creatinine, alkaline phosphatase (ALP), aspartate aminotransferase (AST), total bilirubin and urea.
The following organs were collected from all the dissected mice: lung, kidney, brain, spleen, and liver. All tissues were fixed in 10% (v/v) buffered formalin and processed for paraffin embedding. Hematoxylin–eosin (HE) was used to stain the histological sections at the histopathology laboratory, Veterinary Laboratory Service Unit, University Putra Malaysia (UPM).

Streptococcus pneumoniae = details: 30 pneumococcal clinical isolates; earlier study; ref Jindal et al., 2015; cited from earlier work
Description: Table 1 Sequences and physicochemical properties of the template and hybrid AMPs. | column: MIC^a || One of the advantageous alternatives to today’s antibiotics is antimicrobial peptides (AMPs) ([Deslouches et al., 2013]; [Sánchez-Vásquez et al., 2013]). AMPs are synthesized by almost all living beings as the first line of defense in their immune system against microbial infection. Many aspects favor AMPs over traditional antibiotics: a broad range of antimicrobial activity against pathogenic micro-organisms (including viruses, parasites, bacteria, and fungi), microbial pathogens are less efficient in developing resistance against AMPs, as killing take place in a short contact time and AMPs c ...

[1] = IN, head doses: RN7-IN10, RN7-IN8 20 mg/kg
[2] = SC, head doses: RN7-IN10, RN7-IN8 20 mg/kg

FLGGLIKKWPWWPWRR-NH2 [RN7-IN9, hybrid peptide of ranalexin (residues 1-7) and indolicidin (residues 5-13)]
Eosinophil (ICR (CD-1) mice; [1]): 3.2±1.2%
Erythrocytes, RBC (ICR (CD-1) mice; [1]): 9.36±0.9 10^6/mm^3
Granulocytes (ICR (CD-1) mice; [1]): 56.2±10.81%
Hematocrit, HCT (ICR (CD-1) mice; [1]): 46.82±4.23%
Hemoglobin Hgb (ICR (CD-1) mice; [1]): 14.9 ± 1.32 g/dL
Lymphocytes (ICR (CD-1) mice; [1]): 41.27±10.56%
Mean corpuscular haemoglobin concentration, MCHC (ICR (CD-1) mice; [1]): 31.85 ± 0.17 g/dL
Mean corpuscular haemoglobin, MCH (ICR (CD-1) mice; [1]): 15.95 ± 0.33 pg
Monocytes (ICR (CD-1) mice; [1]): 2.52±0.27%
White blood cells, WBC (ICR (CD-1) mice; [1]): 5.2±2.35 10^3/mm^3
platelet Counts, PLT (ICR (CD-1) mice; [1]): 656.75±76.9 10^3/mm^3
Eosinophil (ICR (CD-1) mice; IP, RN7-IN10, RN7-IN8 20 mg/kg): 3.95±2.56%
Erythrocytes, RBC (ICR (CD-1) mice; IP, RN7-IN10, RN7-IN8 20 mg/kg): 8.06±1.04 10^6/mm^3
Granulocytes (ICR (CD-1) mice; IP, RN7-IN10, RN7-IN8 20 mg/kg): 53.02±4.07%
Hematocrit, HCT (ICR (CD-1) mice; IP, RN7-IN10, RN7-IN8 20 mg/kg): 41.42±5.25%
Hemoglobin Hgb (ICR (CD-1) mice; IP, RN7-IN10, RN7-IN8 20 mg/kg): 13.9 ± 1.67 g/dL
Mean corpuscular haemoglobin concentration, MCHC (ICR (CD-1) mice; IP, RN7-IN10, RN7-IN8 20 mg/kg): 33.63 ± 0.34 g/dL
Mean corpuscular haemoglobin, MCH (ICR (CD-1) mice; IP, RN7-IN10, RN7-IN8 20 mg/kg): 17.25 ± 0.78 pg
Mean corpuscular volume, MCV (ICR (CD-1) mice; IP, RN7-IN10, RN7-IN8 20 mg/kg): 51.5±2.64 µm^3
Monocytes (ICR (CD-1) mice; IP, RN7-IN10, RN7-IN8 20 mg/kg): 2.47±0.25%
White blood cells, WBC (ICR (CD-1) mice; IP, RN7-IN10, RN7-IN8 20 mg/kg): 3.7±1.54 10^3/mm^3
platelet Counts, PLT (ICR (CD-1) mice; IP, RN7-IN10, RN7-IN8 20 mg/kg): 674±118.72 10^3/mm^3
maximum IP dose at which no signs of stress or abnormal behavior were evident (non-toxic dose) (ICR (CD-1) mice; IP, doses at 1 h, 12 h, 24 h, no death up to seven days): 10 mg/kg
Eosinophil (ICR (CD-1) mice; [2]): 2.77±0.54%
Erythrocytes, RBC (ICR (CD-1) mice; [2]): 9.22±0.98 10^6/mm^3
Granulocytes (ICR (CD-1) mice; [2]): 55.55±4.52%
Hematocrit, HCT (ICR (CD-1) mice; [2]): 46.15±5.19%
Hemoglobin Hgb (ICR (CD-1) mice; [2]): 15.75 ± 1.4 g/dL
Lymphocytes (ICR (CD-1) mice; [2]): 46.47±5.48%
Mean corpuscular haemoglobin concentration, MCHC (ICR (CD-1) mice; [2]): 34.2 ± 1.37 g/dL
Mean corpuscular haemoglobin, MCH (ICR (CD-1) mice; [2]): 17.1 ± 0.53 pg
Mean corpuscular volume, MCV (ICR (CD-1) mice; [2]): 51±1.82 µm^3
Monocytes (ICR (CD-1) mice; [2]): 1.95±0.1%
White blood cells, WBC (ICR (CD-1) mice; [2]): 4.32±0.55 10^3/mm^3
platelet Counts, PLT (ICR (CD-1) mice; [2]): 449.75±100.23 10^3/mm^3
Alanine transaminase, ALT (ICR (CD-1) mice; [1]): 41.22±15.75
Alkaline phosphatase, ALP (ICR (CD-1) mice; [1]): 127.75±6.07
Aspartate aminotransferase, AST (ICR (CD-1) mice; [1]): 141.2±23.08
Creatinine (ICR (CD-1) mice; [1]): 37.66±1.26
Total bilirubin (ICR (CD-1) mice; [1]): 2.01±0.27
Urea (ICR (CD-1) mice; [1]): 9.6±1.02
Alanine transaminase, ALT (ICR (CD-1) mice; IP, RN7-IN10, RN7-IN8 20 mg/kg): 51.54±5.83
Aspartate aminotransferase, AST (ICR (CD-1) mice; IP, RN7-IN10, RN7-IN8 20 mg/kg): 172.33±26.35
Creatinine (ICR (CD-1) mice; IP, RN7-IN10, RN7-IN8 20 mg/kg): 37.3±3.51
Total bilirubin (ICR (CD-1) mice; IP, RN7-IN10, RN7-IN8 20 mg/kg): 1.9±0.02
Urea (ICR (CD-1) mice; IP, RN7-IN10, RN7-IN8 20 mg/kg): 10.56±5.2
Alanine transaminase, ALT (ICR (CD-1) mice; [2]): 43.17±13.81
Alkaline phosphatase, ALP (ICR (CD-1) mice; [2]): 131.25±19.7
Aspartate aminotransferase, AST (ICR (CD-1) mice; [2]): 188.33±11.22
Creatinine (ICR (CD-1) mice; [2]): 35±1.27
Total bilirubin (ICR (CD-1) mice; [2]): 2.2±0.13
Urea (ICR (CD-1) mice; [2]): 8.84±1.04
MIC, minimum inhibitory concentration (Streptococcus pneumoniae): 7.81 to 15.62 µg/mL
